According to ChEMBL document CHEMBL3045393, “Aryldiones incorporating a [1,4,5]oxadiazepane ring. Part I: Discovery of the novel cereal herbicide pinoxaden” (Bioorg Med Chem, 2009):
Activity calls are given as the source filed them. The rule behind the calls is not given here.

How the values were obtained:
Avena fatua [1] = assay: Post-emergence herbicidal activity against Avena fatua at 500 g a.i./ha after 21 days; assay type: functional
Avena fatua [2] = assay: Herbicidal activity against Avena fatua at > / = 250 g a.i./ha in presence of cloquintocet-mexyl; assay type: functional, organism-based
Setaria faberi [3] = assay: Post-emergence herbicidal activity against Setaria faberi (Giant Foxtail) at 2000 g a.i./ha after 21 days; assay type: functional
Lolium multiflorum = assay: Herbicidal activity against Lolium multiflorum (Italian ryegrass) at 125 g a.i./ha in presence of cloquintocet-mexyl; assay type: functional, organism-based
Setaria faberi [4] = assay: Post-emergence herbicidal activity against Setaria faberi (Giant Foxtail) at 500 g a.i./ha after 21 days; assay type: functional
Lolium perenne [5] = assay: Post-emergence herbicidal activity against Lolium perenne (perennial ryegrass) at 2000 g a.i./ha after 21 days; assay type: functional
Apera spica-venti = assay: Herbicidal activity against Apera spica-venti at 125 g a.i./ha in presence of cloquintocet-mexyl; assay type: functional, organism-based
Avena fatua [6] = assay: Post-emergence herbicidal activity against Avena fatua at 2000 g a.i./ha after 21 days; assay type: functional
Lolium perenne [7] = assay: Post-emergence herbicidal activity against Lolium perenne (perennial ryegrass) at 500 g a.i./ha after 21 days; assay type: functional
Alopecurus myosuroides [8] = assay: Herbicidal activity against Alopecurus myosuroides at > / = 250 g a.i./ha in presence of cloquintocet-mexyl; assay type: functional, organism-based
Hordeum vulgare [9] = assay: Phytotoxicity against Hordeum vulgare (barley) at 500 g a.i./ha applied post-emergence measured after 15 days; assay type: organism-based; details: in vivo, other, 360 h
Lolium perenne [10] = assay: Post-emergence herbicidal activity against Lolium perenne (perennial ryegrass) at 125 g a.i./ha measured after 21 days; assay type: functional
Triticum aestivum [11] = assay: Phytotoxicity against Triticum aestivum (wheat) at 125 g a.i./ha applied post-emergence measured after 21 days; assay type: organism-based; details: in vivo, other, 504 h
Triticum aestivum [12] = assay: Phytotoxicity against Triticum aestivum (wheat) at 500 g a.i./ha applied post-emergence measured after 15 days; assay type: organism-based; details: in vivo, other, 360 h
Avena fatua [13] = assay: Post-emergence herbicidal activity against Avena fatua at 125 g a.i./ha measured after 21 days; assay type: functional
Alopecurus myosuroides [14] = assay: Post-emergence herbicidal activity against Alopecurus myosuroides at 125 g a.i./ha measured after 21 days; assay type: functional
Avena fatua [15] = assay: Post-emergence herbicidal activity against Avena fatua at 500 g a.i./ha measured after 15 days; assay type: functional
Alopecurus myosuroides [16] = assay: Post-emergence herbicidal activity against Alopecurus myosuroides at 500 g a.i./ha measured after 15 days; assay type: functional
Hordeum vulgare [17] = assay: Phytotoxicity against Hordeum vulgare (barley) at 125 g a.i./ha applied post-emergence measured after 21 days; assay type: organism-based; details: in vivo, other, 504 h
Lolium perenne [18] = assay: Post-emergence herbicidal activity against Lolium perenne (perennial ryegrass) at 500 g a.i./ha measured after 15 days; assay type: functional
Lolium rigidum [19] = assay: Post-emergence herbicidal activity against Lolium rigidum at 30 g a.i./ha measured after 20 days; assay type: functional
Avena fatua [20] = assay: Post-emergence herbicidal activity against Avena fatua at 30 g a.i./ha measured after 20 days; assay type: functional
Lolium perenne [21] = assay: Post-emergence herbicidal activity against Lolium perenne (perennial ryegrass) at 30 g a.i./ha measured after 21 days in presence of 1% Merge adjuvant; assay type: functional
Avena fatua [22] = assay: Post-emergence herbicidal activity against Avena fatua at 30 g a.i./ha measured after 20 days in presence of cloquintocet-mexyl; assay type: functional
Triticum aestivum [23] = assay: Phytotoxicity against Triticum aestivum (wheat) at 30 g a.i./ha applied post-emergence measured after 21 days in presence of 1% Merge adjuvant; assay type: organism-based; details: in vivo, other, 504 h
Avena fatua [24] = assay: Post-emergence herbicidal activity against Avena fatua at 30 g a.i./ha measured after 21 days in presence of 1% Merge adjuvant; assay type: functional
Hordeum vulgare [25] = assay: Phytotoxicity against Hordeum vulgare cv. Fanfare (barley) at 60 g a.i./ha applied post-emergence measured after 12 days; assay type: functional
Triticum aestivum [26] = assay: Phytotoxicity against Triticum aestivum cv. Arina (wheat) at 60 g a.i./ha applied post-emergence measured after 12 days; assay type: functional
Hordeum vulgare [27] = assay: Phytotoxicity against Hordeum vulgare (barley) at 30 g a.i./ha applied post-emergence measured after 21 days in presence of 1% Merge adjuvant; assay type: organism-based; details: in vivo, other, 504 h
Triticum aestivum [28] = assay: Phytotoxicity against Triticum aestivum cv. Arina (wheat) at 60 g a.i./ha applied post-emergence measured after 12 days in presence of cloquintocet-mexyl; assay type: functional
Triticum aestivum [29] = assay: Phytotoxicity against Triticum aestivum cv. Remia (wheat) at 60 g a.i./ha applied post-emergence measured after 12 days; assay type: functional
Triticum aestivum [30] = assay: Phytotoxicity against Triticum aestivum cv. Remia (wheat) at 60 g a.i./ha applied post-emergence measured after 12 days in presence of cloquintocet-mexyl; assay type: functional
Lolium rigidum [31] = assay: Post-emergence herbicidal activity against Lolium rigidum at 30 g a.i./ha measured after 20 days in presence of cloquintocet-mexyl; assay type: functional
Setaria faberi [32] = assay: Post-emergence herbicidal activity against Setaria faberi (Giant Foxtail) at 30 g a.i./ha measured after 21 days in presence of 1% Merge adjuvant; assay type: functional
Hordeum vulgare [33] = assay: Phytotoxicity against Hordeum vulgare cv. Fanfare (barley) at 60 g a.i./ha applied post-emergence measured after 12 days in presence of cloquintocet-mexyl; assay type: functional
Alopecurus myosuroides [34] = assay: Post-emergence herbicidal activity against Alopecurus myosuroides at 30 g a.i./ha measured after 21 days in presence of 1% Merge adjuvant; assay type: functional
Avena fatua [35] = assay: Post-emergence herbicidal activity against Avena fatua at 125 g a.i./ha measured after 21 days in presence of 0.2% X-77 adjuvant; assay type: functional
Triticum aestivum [36] = assay: Phytotoxicity against Triticum aestivum (wheat) at 125 g a.i./ha applied post-emergence measured after 21 days in presence of 0.2% X-77 adjuvant; assay type: organism-based; details: in vivo, other, 504 h
Lolium perenne [37] = assay: Post-emergence herbicidal activity against Lolium perenne (perennial ryegrass) at 30 g a.i./ha measured after 21 days in presence of 0.2% X-77 adjuvant; assay type: functional
Hordeum vulgare [38] = assay: Phytotoxicity against Hordeum vulgare (barley) at 125 g a.i./ha applied post-emergence measured after 21 days in presence of 0.2% X-77 adjuvant; assay type: organism-based; details: in vivo, other, 504 h
Triticum aestivum [39] = assay: Phytotoxicity against Triticum aestivum (wheat) at 30 g a.i./ha applied post-emergence measured after 21 days in presence of 0.2% X-77 adjuvant; assay type: organism-based; details: in vivo, other, 504 h
Alopecurus myosuroides [40] = assay: Post-emergence herbicidal activity against Alopecurus myosuroides at 125 g a.i./ha measured after 21 days in presence of 0.2% X-77 adjuvant; assay type: functional
Setaria faberi [41] = assay: Post-emergence herbicidal activity against Setaria faberi (Giant Foxtail) at 125 g a.i./ha measured after 21 days in presence of 0.2% X-77 adjuvant; assay type: functional
Hordeum vulgare [42] = assay: Phytotoxicity against Hordeum vulgare (barley) at 30 g a.i./ha applied post-emergence measured after 21 days in presence of 0.2% X-77 adjuvant; assay type: organism-based; details: in vivo, other, 504 h
Lolium perenne [43] = assay: Post-emergence herbicidal activity against Lolium perenne (perennial ryegrass) at 125 g a.i./ha measured after 21 days in presence of 0.2% X-77 adjuvant; assay type: functional
Avena fatua [44] = assay: Post-emergence herbicidal activity against Avena fatua at 30 g a.i./ha measured after 21 days in presence of 0.2% X-77 adjuvant; assay type: functional
Alopecurus myosuroides [45] = assay: Post-emergence herbicidal activity against Alopecurus myosuroides at 30 g a.i./ha measured after 21 days in presence of 0.2% X-77 adjuvant; assay type: functional
Setaria faberi [46] = assay: Post-emergence herbicidal activity against Setaria faberi (Giant Foxtail) at 30 g a.i./ha measured after 21 days in presence of 0.2% X-77 adjuvant; assay type: functional
[47] = Half life of hydrolysis at pH 7 at 50 degC; assay type: ADME; details: buffer

SMILES	Activity (Lolium rigidum [19])	Activity (Avena fatua [20])	Activity (Lolium perenne [21])	Activity (Avena fatua [22])	Activity (Triticum aestivum [23])	Activity (Avena fatua [24])	Activity (Hordeum vulgare [25])	Activity (Triticum aestivum [26])	Activity (Hordeum vulgare [27])	Activity (Triticum aestivum [28])	Activity (Triticum aestivum [29])	Activity (Triticum aestivum [30])	Activity (Lolium rigidum [31])	Activity (Setaria faberi [32])	Activity (Hordeum vulgare [33])	Activity (Alopecurus myosuroides [34])	other results
Cc1cc(C)c(-c2c(OC(=O)C(C)(C)C)n3n(c2=O)CCOCC3)c(C)c1	–	–	–	–	–	–	–	–	–	–	–	–	–	–	–	–	Activity (Avena fatua [1]): 90%; Activity (Avena fatua [2]): Active; Activity (Setaria faberi [3]): 100%; Activity (Lolium multiflorum): Active; Activity (Setaria faberi [4]): 90%; Activity (Lolium perenne [5]): 90%; Activity (Apera spica-venti): Active; Activity (Avena fatua [6]): 100%; Activity (Lolium perenne [7]): 90%; Activity (Alopecurus myosuroides [8]): Active
Cc1cc(C)c(C2C(=O)N3CCCCN3C2=O)c(C)c1 [CGA-271312]	–	–	–	–	–	–	–	–	–	–	–	–	–	–	–	–	Activity (Hordeum vulgare [9]): 90%; Activity (Lolium perenne [10]): 40%; Activity (Triticum aestivum [11]): 0%; Activity (Triticum aestivum [12]): 60%; Activity (Avena fatua [13]): 50%; Activity (Alopecurus myosuroides [14]): 40%; Activity (Avena fatua [15]): 90%; Activity (Alopecurus myosuroides [16]): 60%; Activity (Hordeum vulgare [17]): 40%; Activity (Lolium perenne [18]): 90%
CCc1cc(C)cc(CC)c1C1C(=O)N2CCOCCN2C1=O [PINOXADEN DIONE]	90%	90%	90%	90%	10%	100%	40%	20%	0%	0%	50%	0%	90%	90%	0%	100%	–
CCc1cccc(CC)c1C1C(=O)N2CCCCN2C1=O	–	–	80%	–	80%	100%	–	–	80%	–	–	–	–	90%	–	100%	Activity (Avena fatua [35]): 80%; Activity (Triticum aestivum [36]): 0%; Activity (Lolium perenne [37]): 50%; Activity (Hordeum vulgare [38]): 0%; Activity (Triticum aestivum [39]): 40%; Activity (Alopecurus myosuroides [40]): 60%; Activity (Setaria faberi [41]): 40%; Activity (Hordeum vulgare [42]): 10%; Activity (Lolium perenne [43]): 40%; Activity (Avena fatua [44]): 90%; Activity (Alopecurus myosuroides [45]): 80%; Activity (Setaria faberi [46]): 40%
CCc1cc(C)cc(CC)c1-c1c(OC(=O)C(C)(C)C)n2n(c1=O)CCOCC2 [PINOXADEN]	90%	90%	100%	90%	10%	100%	20%	30%	0%	0%	30%	0%	95%	90%	0%	100%	half-life [47]: 20.6 h
